{"source": "patent US12434967B2", "about": "“Method for preparing a solid material for storing ozone, the material and the uses thereof” (priority 2019, dated 2025)", "key": {"[1]": {"conditions": "in water under ambient conditions; cited from earlier work"}, "[2]": {"experiment": "ozone release, first test: water added to powder in closed reactor, ozone detector", "assay_type": "physicochemical", "conditions": "same conditions, after adding water", "procedure": "In the first test, about 1.5 g of ozone storage material in powder form have been placed in a glass cup, which in turn has been placed in a glass reactor of volume 1.4 litres. The reactor can be hermetically closed and has been maintained at ambient temperature (˜20° C.).\nA portable ozone detector (model X-an-5000 from Dräger, equipped with an XXS O3 cell specifically for ozone detection, detection limit equal to 0.02 ppm and resolution equal to 0.01 ppm, response time <10 s at 20° C.) has been introduced into the reactor and switched on near the powder cup. The detector thus placed makes it possible to continuously emphasise the presence of ozone in the reactor, from an ozone concentration higher than the detection limit of 0.02 ppm.\nSecondly, using a graduated glass pipette, a volume of approximately 3 ml of distilled water has been introduced onto the powder through one of the upper openings of the reactor. The reactor has then been immediately hermetically closed again to monitor the course of the vapour phase composition of the reactor with the detector over time. The dissolution of part of the material (about ⅓ of the initial amount) by this addition of water (as the material is relatively soluble in water), caused a rapid increase in the ozone concentration over time as read on the detector (for example 0.1 ppm measured in 40 s; 0.2 ppm in 100 s). […]"}}}
{"molecule": "O=[O+][O-]", "note": "[ozone]", "values": [{"measurement": "lifetime", "setting": "[1]", "value": "about 20 minutes"}]}
{"molecule": "(2-hydroxypropyl)-β-cyclodextrin [native HP-β-CD]", "values": [{"measurement": "ozone release on the detector", "setting": "[2]", "value": "no ozone release was observed"}]}
